The values below are quoted from earlier work in patent publication US8518957B2, “Methanocarba adenosine derivatives, pharmaceutical compositions, and method of reducing intraocular pressure” (The United States of America, as represented by the …, priority 2009, dated 2013).

Read-outs that look alike come from different tables or passages of the source.

For data set [1], the target named is T1, human A1 AR (Homo sapiens, UniProt P30542).
T1 construct: expressed in transfected cells
T1 sequence (P30542 1-326): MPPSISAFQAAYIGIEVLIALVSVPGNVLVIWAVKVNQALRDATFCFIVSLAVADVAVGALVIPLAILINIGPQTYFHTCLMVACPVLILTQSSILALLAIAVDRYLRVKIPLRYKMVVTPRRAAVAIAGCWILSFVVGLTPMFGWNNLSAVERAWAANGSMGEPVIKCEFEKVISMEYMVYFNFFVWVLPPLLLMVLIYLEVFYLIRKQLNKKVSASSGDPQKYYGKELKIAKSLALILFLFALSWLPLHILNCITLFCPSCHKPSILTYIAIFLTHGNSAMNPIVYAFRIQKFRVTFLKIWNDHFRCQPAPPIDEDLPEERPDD
Particulars: cited from earlier work.

Data set [2] concerns the target T2, human A3AR (Homo sapiens, UniProt P0DMS8).
T2 construct: expressed in transfected cells
T2 sequence (P0DMS8 1-318): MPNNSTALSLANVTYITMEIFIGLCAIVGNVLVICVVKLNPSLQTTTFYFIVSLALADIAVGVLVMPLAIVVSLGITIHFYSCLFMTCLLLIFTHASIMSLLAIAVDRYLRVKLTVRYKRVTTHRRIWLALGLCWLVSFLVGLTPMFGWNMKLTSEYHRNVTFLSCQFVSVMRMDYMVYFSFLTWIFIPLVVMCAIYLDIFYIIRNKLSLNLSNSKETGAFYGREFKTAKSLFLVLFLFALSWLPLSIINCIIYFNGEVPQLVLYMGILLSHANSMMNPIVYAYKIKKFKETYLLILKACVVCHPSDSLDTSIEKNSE
Particulars: at 10 μM, relative to NECA 10 μM; values from Tosh et al.; cited from earlier work.

Data set [3] concerns the target T3, hA2AAR (Homo sapiens, UniProt P29274).
T3 construct: expressed in transfected cells
To be noted: cited from earlier work.

The target of data set [4] is T2, human A3AR. Particulars: model compounds; values from Tosh et al. and Melman et al.; read-out: Affinity (Ki, nM), A3; cited from earlier work.
The mark [5] stands for this setting: inhibition of radioligand binding at 10 μM, values from Tosh et al.

T3 sequence (P29274 whole entry): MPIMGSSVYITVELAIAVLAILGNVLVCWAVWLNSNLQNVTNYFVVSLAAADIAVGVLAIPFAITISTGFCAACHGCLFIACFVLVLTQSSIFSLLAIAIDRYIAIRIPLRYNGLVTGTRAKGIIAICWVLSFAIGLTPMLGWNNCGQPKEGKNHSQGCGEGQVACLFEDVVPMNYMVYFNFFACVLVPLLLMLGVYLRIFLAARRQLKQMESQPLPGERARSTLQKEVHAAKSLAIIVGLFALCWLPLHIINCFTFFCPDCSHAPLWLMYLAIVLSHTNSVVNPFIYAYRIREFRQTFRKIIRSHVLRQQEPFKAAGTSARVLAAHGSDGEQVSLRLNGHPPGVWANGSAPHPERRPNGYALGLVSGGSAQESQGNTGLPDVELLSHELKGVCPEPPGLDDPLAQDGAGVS

For the compound `CNC(=O)C12CC1C(n1cnc3c(NCc4cccc(Cl)c4)nc(C#CCCC(=O)NCCNC(=O)CCCCC4SCC5NC(=O)NC54)nc31)C(O)C2O` (stereo not drawn) [Compound 2], the “% inhibition, A1” value in data set [1] (setting [5]) is on record as “(1 ± 1%)”. In addition, the “% Inhibition of cAMP formation at hA3 AR” value in data set [2] is on record as 84.5 ± 12.0%. In data set [3] (setting [5]), the “% inhibition, A2A” value is “(51 ± 2%)”.
What is called Ki is a dissociation constant, usually derived from enzyme kinetics or from competition with a known ligand. For the compound `CNC(=O)C12CC1C(n1cnc3c(NCc4cccc(C#CCCCCC(=O)NCCNC(C)=O)c4)nc(Cl)nc31)C(O)C2O` (stereo not drawn) [Compound 104c], the Ki is 181 nM in data set [1] (model compounds, values from Tosh et al. and Melman et al., read-out: Affinity (Ki, nM), A1); 228 nM in data set [4]. For the same compound, in data set [3] (at 10 μM, model compounds, values from Tosh et al. and Melman et al.), the “% inhibition, A2A” value is on record as “(80%)”.
